The values below come from patent publication US5847159A, “1-[ω-(3,4-dihydro-2-naphthalenyl)alkyl]-cyclic amine derivatives, process for preparing the same, and pharmaceutical composition containing the same” (priority 1995, dated 1998).

Structures are written as SMILES. Where a name gives a salt, the structure may show the parent alone.

The assay concerns rhythmic bladder contractions (micturition reflex). In words: Inhibitory effect on rhythmic bladder contractions (micturition reflex). The assay is classed as in vivo, Female Std-Wistar rats. The conditions noted are these: i.d., rat; for inhibition in vivo at 10 mg/kg / inhibition in vivo at 30 mg/kg: intraduodenal, mean over two hours, read-out: Inhibitory rate on contractile frequency; for inhibition in vivo at 10 mg/kg / ED50 / inhibition in vivo at 30 mg/kg: 2 h; for ED50: two hours, read-out: ED50, inhibitory effect on contractile frequency; for Potency on frequency of rhythmic bladder contractions relative to inaperisone hydrochloride (Compound A): compared with Compound A. The procedure: Inhibitory effect on rhythmic bladder contractions (micturition reflex)
The experiment was carried out according to the method of Maggi, C. […] It is generally accepted that the rhythmic bladder contractions evoked by instillation of saline solution into the bladder are mediated via the micturition reflex pathway like that of natural urination.
Female Std-Wistar rats weighing 160-190 g were used in groups of 3-4 animals. Under urethane anesthesia (1 g/kg, s.c.), both ureters were tied and cut at the side of kidney after a mid line incision of the abdomen. A cannula, connected to a syringe and a pressure transducer, was inserted into the bladder via the external urethral orifice and ligated around the proximal urethra. The animal was allowed to stay for about 30 minutes after the operation. The bladder was slowly filled with warm saline solution (0.4-1 ml) by means of a syringe until rhythmic contractions were induced. The change of the intravesical pressure was recorded on a recorder via a pressure transducer. After the rhythmic contractions became constant, test compounds dissolved or suspended in 0.5% aqueous tragacanth solution were administered via the cannula inserted for intraduodenal administration. The effect of each compound on the contractile frequency was investigated every 15 minutes till two hours after the administration.
The inhibitory rate on the contractile frequency (two hours) was expressed as the mean value of the inhibitory rates at an every 15-minute interval for two hours after the administration, which was determined based on the contractile frequency for 15 minutes before the administration.

Take `C1=C(CCN2CCCC2)CCc2cc3c(cc21)OCO3` [Ex. 49]: the “Effect on the amplitude of contraction” value is “suppressed the amplitude of contraction” and the inhibition in vivo at 10 mg/kg was determined as 46%.

Turning to `COc1cccc2c1CCC(CCN1CCCCC1)=C2` [Ex. 26], the ED50 (in general, the dose at which the effect has come halfway, by size or by number of responders) amounted to 29.1 mg/kg and the “Effect on the amplitude of contraction” value is listed as “suppressed the amplitude of contraction”. In the case of `Fc1ccc(F)c2c1C=C(CCN1CCCC1)CC2` [Ex. 55], the inhibition in vivo at 10 mg/kg worked out at 43%. With `Fc1cc2c(cc1F)CCC(CCN1CCCC1)=C2` [Ex. 36, 1-[2-(6,7-difluoro-3,4-dihydro-2-naphthalenyl)ethyl]pyrrolidine], the ED50 came out at 12.9 mg/kg, the “Effect on the amplitude of contraction” value was “suppressed the amplitude of contraction” and the “Potency on frequency of rhythmic bladder contractions relative to inaperisone hydrochloride (Compound A)” value is roughly 3 times more potent. As for `Cc1cccc2c1CCC(CCN1CCCCC1)=C2` [Ex. 18], the inhibition in vivo at 30 mg/kg came to 51%. As to `Fc1cccc2c1CCC(CCN1CCC(F)C1)=C2` (centres unmarked) [Ex. 53], the inhibition in vivo at 10 mg/kg was found to be 35%.

Turning to `C1=C(CCCCN2CCCCC2)CCc2ccccc21` [Ex. 6], the inhibition in vivo at 10 mg/kg was found to be 42%. As to `Fc1ccc2c(c1)C=C(CCN1CCCCC1)CC2` [Ex. 13], the inhibition in vivo at 30 mg/kg amounted to 77%. As for `COc1cc2c(cc1OC)CCC(CCN1CCCC1)=C2` [Ex. 62, 1-[2-(3,4-dihydro-6,7-dimethoxy-2-naphthalenyl)ethyl]-pyrrolidine], the ED50 amounted to 6.1 mg/kg, the “Effect on the amplitude of contraction” value is “suppressed the amplitude of contraction” and the “Potency on frequency of rhythmic bladder contractions relative to inaperisone hydrochloride (Compound A)” value is “approximately 5.7 times more potent”.

In the case of `Cc1cc2c(cc1C)CCC(CCN1CCCCCC1)=C2` [Ex. 44], the inhibition in vivo at 10 mg/kg was 34%. With `C1=C(CCCN2CCCCC2)CCc2ccccc21` [Ex. 3], the “Effect on the amplitude of contraction” value is recorded as “suppressed the amplitude of contraction” and the inhibition in vivo at 10 mg/kg was found to be 38%. In the case of `Fc1ccc2c(c1F)CCC(CCN1CCCC1)=C2` [Ex. 54], the inhibition in vivo at 10 mg/kg was 43%. With `Fc1ccc2c(c1)CCC(CCN1CCCCC1)=C2` [Ex. 11], the inhibition in vivo at 30 mg/kg came out at 60%. Turning to `Fc1cc(F)c2c(c1)C=C(CCN1CCCC1)CC2` [Ex. 52, 1-[2-(5,7-difluoro-3,4-dihydro-2-naphthalenyl)ethyl]-pyrrolidine], the inhibition in vivo at 10 mg/kg turned out to be 52%. On the same count and under the same terms, under `C1=C(CCN2CCCC2)CCc2cc3c(cc21)CCC3` [Ex. 47] stands 37%. As for `Cc1ccc2c(c1)C=C(CCN1CCCC1)CC2` [Ex. 20], the “Effect on the amplitude of contraction” value is “suppressed the amplitude of contraction” and the inhibition in vivo at 30 mg/kg is 67%. With `Cc1cc2c(cc1C)CCC(CCN1CCCCCCC1)=C2` [Ex. 45], the inhibition in vivo at 10 mg/kg amounted to 48%. Regarding `COc1cccc2c1CCC(CCCCCN1CCCCC1)=C2` [Ex. 32], the inhibition in vivo at 10 mg/kg amounted to 47%. The same measure, in the same setting: under `Clc1cccc2c1CCC(CCN1CCCC1)=C2` [Ex. 14] stands 49%. Take `Fc1cccc2c1CCC(CCN1CCCCC1)=C2` [Ex. 8]: the inhibition in vivo at 30 mg/kg turned out to be 62%. Take `COc1ccc2c(c1)C=C(CCN1CCCCC1)CC2` [Ex. 34]: the inhibition in vivo at 30 mg/kg is 65%. Take `COc1ccc2c(c1)C=C(CCN1CCCC1)CC2` [Ex. 58, 1-[2-(3,4-dihydro-7-methoxy-2-naphthalenyl)ethyl]-pyrrolidine]: the inhibition in vivo at 10 mg/kg is 34%. With `Clc1ccc2c(c1)C=C(CCN1CCCC1)CC2` [Ex. 15], the inhibition in vivo at 10 mg/kg was 44%.

For the molecule `C1=C(CCCCN2CCCC2)CCc2ccccc21` [Ex. 4], the ED50 is 11.4 mg/kg, the “Effect on the amplitude of contraction” value is given as “suppressed the amplitude of contraction” and the “Potency on frequency of rhythmic bladder contractions relative to inaperisone hydrochloride (Compound A)” value is given as roughly 3 times more potent. In the case of `Fc1cccc2c1CCC(CCN1CCCCCC1)=C2` [Ex. 9], the inhibition in vivo at 10 mg/kg came to 47%.

Consider `Cc1cc2c(cc1C)CCC(CCN1C(C)CCC1C)=C2` (centres unmarked) [Ex. 50, 1-[2-(3,4-dihydro-6,7-dimethyl-2-naphthalenyl)ethyl]-2,5-dimethylpyrolidin], for which the “Effect on the amplitude of contraction” value was “suppressed the amplitude of contraction” and the inhibition in vivo at 10 mg/kg was 50%. Turning to `CCc1cc2c(cc1CC)CCC(CCN1CCCC1)=C2` [Ex. 46, 1-[2-(6,7-diethyl-3,4-dihydro-2-naphthalenyl)ethyl]pyrrolidine], the ED50 is 12.4 mg/kg.

Consider `COC(=O)c1ccc2c(c1)C=C(CCN1CCCC1)CC2` [Ex. 56, 1-[2-(3,4-Dihydro-7-methoxycarbonyl-2-naphthalenyl)ethyl]pyrrolidine], for which the “Effect on the amplitude of contraction” value is on record as “suppressed the amplitude of contraction” and the inhibition in vivo at 10 mg/kg amounted to 34%. For `Cc1cc2c(cc1C)CCC(CCN1CCC1)=C2` [Ex. 41], in that order: “suppressed the amplitude of contraction” and 38%. Take `COc1cc2c(cc1C)CCC(CCN1CCCC1)=C2` [Ex. 68, 1-[2-(3,4-dihydro-7-methoxy-6-methyl-2-naphthalenyl)ethyl]pyrrolidine]: the ED50 stood at 7.4 mg/kg, the “Effect on the amplitude of contraction” value was “suppressed the amplitude of contraction” and the “Potency on frequency of rhythmic bladder contractions relative to inaperisone hydrochloride (Compound A)” value is reported as roughly 4.7 times more potent. With `Cc1cc2c(cc1C(=O)O)CCC(CCN1CCCC1)=C2` [Ex. 74, 1-[2-(6-carboxy-3,4-dihydro-7-methyl-2-naphthalenyl)-ethyl]pyrrolidine], the inhibition in vivo at 10 mg/kg is 42%. Still for that read-out and setting: as for `OC1CCN(CCC2=Cc3ccccc3CC2)C1` (centres unmarked) [Ex. 60, 1-[2-(3,4-Dihydro-2-naphthalenyl)ethyl]-3-hydroxypyrrolidine hydrochloride], the figure is 33%. Take `Fc1ccc2c(c1)CCC(CCN1CCCC1)=C2` [Ex. 10]: the inhibition in vivo at 10 mg/kg was found to be 33%.

In the case of `Cc1cc2c(cc1CO)CCC(CCN1CCCC1)=C2` [Ex. 72, 1-[2-(3,4-dihydro-6-hydroxymethyl-7-methyl-2-naphthalenyl)ethyl]pyrrolidin], the “Effect on the amplitude of contraction” value is listed as “suppressed the amplitude of contraction” and the inhibition in vivo at 10 mg/kg was found to be 49%. For the molecule `Cc1cc2c(cc1C)CCC(CCN1CCC(O)C1)=C2` (centres unmarked) [Ex. 66], the inhibition in vivo at 10 mg/kg was found to be 34%. Regarding `Fc1ccc2c(c1)C=C(CCN1CCCC1)CC2` [Ex. 12], the “Effect on the amplitude of contraction” value is “suppressed the amplitude of contraction” and the inhibition in vivo at 10 mg/kg stood at 35%.
